In US9156796B2, “Benzoimidazole-carboxylic acid amide derivatives as APJ receptor modulators” (SANOFI, priority 2013, dated 2015) one finds EC50 data, which are given here for 22 molecules.

The assay deals with T1, human apelin receptor (Homo sapiens, UniProt P35414).
T1 construct: expressed in transfected cells
T1 sequence (P35414 1-380): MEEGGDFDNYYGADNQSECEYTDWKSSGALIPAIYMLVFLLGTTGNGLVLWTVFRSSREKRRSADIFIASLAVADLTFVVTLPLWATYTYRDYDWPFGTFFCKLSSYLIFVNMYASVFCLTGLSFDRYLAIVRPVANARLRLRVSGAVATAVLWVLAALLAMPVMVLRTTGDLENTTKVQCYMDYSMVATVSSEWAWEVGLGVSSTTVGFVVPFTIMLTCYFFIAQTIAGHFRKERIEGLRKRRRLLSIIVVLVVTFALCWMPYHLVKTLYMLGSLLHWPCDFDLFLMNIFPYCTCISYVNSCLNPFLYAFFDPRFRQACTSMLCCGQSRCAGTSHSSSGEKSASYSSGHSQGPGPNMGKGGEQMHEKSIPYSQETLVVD
As to the kind of experiment: Determination of agonism on the human apelin receptor by a calcium fluorescence assay (FLIPR). Type of assay: cell-based. The following applies: HEK293 cells stably transfected with human apelin receptor and Giaq protein, Fluo-4 calcium fluorescence. The method, boiled down:
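HEK293 cells stably co-expressing human apelin receptor and promiscuous Giaq, loaded 1 h at 37 °C with Fluo-4 (4 μM) in probenecid-containing Hepes buffer, pH 7.4. Compounds, at least 7 concentrations in triplicate, added in FLIPR Tetra; peak calcium fluorescence normalized to 1 μM apelin-13 as 100% to derive EC50.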

Where two headings read alike, the source gives them in different places.

Take `CCC(CC)n1c(Cc2cccs2)nc2cc(C(=O)N[C@@H](CC(C)C)C(=O)N(C)C3CCOCC3)ccc21` [Example 377, 1-(1-Ethyl-propyl)-2-thiophen-2-ylmethyl-1H-benzoimidazole-5-carboxylic acid {(S)-3-methyl-1-[methyl-(tetrahydro-pyran-4-yl)-carbamoyl]-butyl}-amide]: the EC50 (read-out: EC50 (APJ agonism)) turned out to be 1.14 µM. For `CCC(CC)n1c(Cc2cccs2)nc2cc(C(=O)NC(CC(=O)O)C3CCCCC3)ccc21` (stereo not shown) [Example 44, 3-Cyclohexyl-3-{[1-(1-ethyl-propyl)-2-thiophen-2-ylmethyl-1H-benzoimidazole-5-carbonyl]-amino}-propionic acid], the concentration giving a half-maximal response (EC50) (read-out: EC50 (APJ agonism)) came to 0.258 µM. Still for that read-out and setting: the result for `CCC(CC)n1c(Cc2cccs2)nc2cc(C(=O)N[C@@H](CC(C)C)C(=O)NC3CCN(CC(C)C)CC3)ccc21` [Example 337, 1-(1-Ethyl-propyl)-2-thiophen-2-ylmethyl-1H-benzoimidazole-5-carboxylic acid [(S)-1-(1-isobutyl-piperidin-4-ylcarbamoyl)-3-methyl-butyl]-amide] reads 0.331 µM; that for `CCC(CC)n1c(Cc2cccs2)nc2cc(C(=O)N[C@H](CC(=O)O)C(C)C)ccc21` [Example 161, (R)-3-{[1-(1-Ethyl-propyl)-2-thiophen-2-ylmethyl-1H-benzoimidazole-5-carbonyl]-amino}-4-methyl-pentanoic acid], 2.3 µM; that for `CCC(CC)n1c(CC2CCCO2)nc2cc(C(=O)N[C@H](CC(=O)O)CC(C)C)ccc21` (stereo partly drawn) [Example 160, (S)-3-{[1-(1-Ethyl-propyl)-2-(tetrahydro-furan-2-ylmethyl)-1H-benzoimidazole-5-carbonyl]-amino}-5-methyl-hexanoic acid], 0.82 µM. Same read-out and setting: the result for `C[C@@H]1CCCC[C@H]1n1c(Cc2cccs2)nc2cc(C(=O)N[C@@H](CC3CCC3)C(=O)O)ccc21` [Example 23, (S)-3-Cyclobutyl-2-{[1-((1R,2R)-2-methyl-cyclohexyl)-2-thiophen-2-ylmethyl-1H-benzoimidazole-5-carbonyl]-amino}-propionic acid] reads 0.106 µM; that for `CCC(CC)n1c(Cc2cccs2)nc2cc(C(=O)N[C@@H](CC(C)C)C(=O)NCc3ccc(F)cc3)ccc21` [Example 244, 1-(1-Ethyl-propyl)-2-thiophen-2-ylmethyl-1H-benzoimidazole-5-carboxylic acid [(S)-1-(4-fluoro-benzylcarbamoyl)-3-methyl-butyl]-amide], 4.28 µM. Still for that read-out and setting: under `CCC(CC)n1c(Cc2cccs2)nc2cc(C(=O)NC(CC3CCCC3)C(=O)O)ccc21` (stereo not shown) [Example 11, 3-Cyclopentyl-2-{[1-(1-ethyl-propyl)-2-thiophen-2-ylmethyl-1H-benzoimidazole-5-carbonyl]-amino}-propionic acid] stands 0.065 µM; under `CCC(CC)n1c(Cc2cccs2)nc2cc(C(=O)N[C@@H](CC(C)C)C(=O)N3CCN(C4CCCCC4)CC3)ccc21` [Example 318, 1-(1-Ethyl-propyl)-2-thiophen-2-ylmethyl-1H-benzoimidazole-5-carboxylic acid [(S)-1-(4-cyclohexyl-piperazine-1-carbonyl)-3-methyl-butyl]-amide], 2.86 µM. Turning to `CCC(CC)n1c(Cc2cccs2)nc2cc(C(=O)N[C@H](C(=O)O)[C@H](C)CC)ccc21` [Example 153, (2S,3R)-2-{[1-(1-Ethyl-propyl)-2-thiophen-2-ylmethyl-1H-benzoimidazole-5-carbonyl]-amino}-3-methyl-pentanoic acid], the EC50 (read-out: EC50 (APJ agonism)) worked out at 0.35 µM.

On to `CC(C)C[C@H](NC(=O)c1ccc2c(c1)nc(Cc1cccs1)n2C1CCCCC1C)C(=O)O` (single isomer, unassigned) [Example 413], for which the 50% effective concentration (EC50) (read-out: EC50 (APJ agonism)) stood at 1.02 µM. As for `CC(C)C[C@H](NC(=O)c1ccc2c(c1)nc(Cc1ccsc1)n2-c1ccccc1)C(=O)O` [Example 136, (S)-4-Methyl-2-[(1-phenyl-2-thiophen-3-ylmethyl-1H-benzoimidazole-5-carbonyl)-amino]-pentanoic acid], the concentration for a half-maximal effect (EC50) (read-out: EC50 (APJ agonism)) is 2.7 µM. In the case of `CCCC(CO)NC(=O)c1ccc2c(c1)nc(CC1CCCC1)n2C(CC)CC` (stereo not shown) [Example 181, 2-Cyclopentylmethyl-1-(1-ethyl-propyl)-1H-benzoimidazole-5-carboxylic acid (1-hydroxymethyl-butyl)-amide], the concentration giving a half-maximal response (EC50) (read-out: EC50 (APJ agonism)) came out at 6.95 µM.

As to `CCC(CC)n1c(Cc2cccs2)nc2cc(C(=O)N[C@H](CO)C(C)C)ccc21` [Example 190, 1-(1-Ethyl-propyl)-2-thiophen-2-ylmethyl-1H-benzoimidazole-5-carboxylic acid ((S)-1-hydroxymethyl-2-methyl-propyl)-amide], the 50% effective concentration (EC50) (EC50 (APJ agonism)) stood at 6.28 µM. Consider `CCC(CC)n1c(Cc2cccs2)nc2cc(C(=O)NC3(C(=O)O)CCCC3)ccc21` [Example 6, 1-{[1-(1-Ethyl-propyl)-2-thiophen-2-ylmethyl-1H-benzoimidazole-5-carbonyl]-amino}-cyclopentanecarboxylic acid], for which the concentration giving a half-maximal response (EC50) (read-out: EC50 (APJ agonism)) was 3.82 µM.

With `CCC(CC)n1c(Cc2cccs2)nc2cc(C(=O)N[C@@H](CC(C)C)C(=O)NCCC3CCOCC3)ccc21` [Example 382, 1-(1-Ethyl-propyl)-2-thiophen-2-ylmethyl-1H-benzoimidazole-5-carboxylic acid {(S)-3-methyl-1-[2-(tetrahydro-pyran-4-yl)-ethylcarbamoyl]-butyl}-amide], the concentration for a half-maximal effect (EC50) (read-out: EC50 (APJ agonism)) was found to be 3.56 µM.

Turning to `CCC(CC)n1c(Cc2cccs2)nc2cc(C(=O)N[C@@H](CC(C)C)C(=O)NCCCN3CCS(=O)(=O)CC3)ccc21` [Example 342, 1-(1-Ethyl-propyl)-2-thiophen-2-ylmethyl-1H-benzoimidazole-5-carboxylic acid {(S)-1-[3-(1,1-dioxo-1lambda6-thiomorpholin-4-yl)-propylcarbamoyl]-3-methyl-butyl}-amide], the half-maximal effective concentration (EC50) (read-out: EC50 (APJ agonism)) came to 0.999 µM. Regarding `CCC(CC)n1c(Cc2cccs2)nc2cc(C(=O)N[C@@H](CC(C)C)C(=O)NC(C)CCCN(CC)CC)ccc21` (stereo partly drawn) [Example 314, 1-(1-Ethyl-propyl)-2-thiophen-2-ylmethyl-1H-benzoimidazole-5-carboxylic acid [(S)-1-(4-diethylamino-1-methyl-butylcarbamoyl)-3-methyl-butyl]-amide], the EC50 (read-out: EC50 (APJ agonism)) turned out to be 0.474 µM. `CC(C)C[C@H](NC(=O)c1ccc2c(c1)nc(Cc1ccco1)n2C1CCCCC1C)C(=O)O` (single isomer, unassigned) [Example 419]: the 50% effective concentration (EC50) (read-out: EC50 (APJ agonism)) is 0.313 µM. The same measure, in the same setting: under `CCC(CC)n1c(Cc2cccs2)nc2cc(C(=O)N[C@@H](CC(C)C)C(=O)NCCOc3ccccc3)ccc21` [Example 366, 1-(1-Ethyl-propyl)-2-thiophen-2-ylmethyl-1H-benzoimidazole-5-carboxylic acid [(S)-3-methyl-1-(2-phenoxy-ethylcarbamoyl)-butyl]-amide] stands 16.5 µM; under `CCC(CC)n1c(Cc2cccs2)nc2cc(C(=O)N[C@H](CC(=O)O)CC(C)C)ccc21` [Example 95, (S)-3-{[1-(1-Ethyl-propyl)-2-thiophen-2-ylmethyl-1H-benzoimidazole-5-carbonyl]-amino}-5-methyl-hexanoic acid], 0.095 µM; under `C[C@@H]1CCCC[C@H]1n1c(Cc2cccs2)nc2cc(C(=O)NC(CC3CCCCCC3)C(=O)O)ccc21` (single isomer, unassigned) [Example 450], 0.72 µM.

As a reminder, the EC50 is the concentration at which the effect is half-maximal.
